The values that follow come from patent publication US20050239754A1 (priority 2003, published 2005).

This data set is described as follows: Pseudo-titration in water with IRA-400(OH) anion exchange resin, samples assayed by HPLC. Type of data set: physicochemical. The procedure: 60 g of Amberlite IRA400 (OH) resin was prewashed with 4.7 percent (by weight) ammonium hydroxide (50 ml of 28 percent ammonium hydroxide, 250 ml deionized water), followed by extensive washing with deionized water. The final conductivity was 6.1 μS.
Samples containing about 0.9 g of S-[2-[(1-Iminoethyl)amino]ethyl]-2-methyl-L-cysteine di-hydrochloride in 142 ml HCl/water solution, were concentrated on a rotary evaporator at 60° C. to an oil. To the oil, diluted to 60 ml with deionized water, was added aliquots of 0.5 g of washed anion exchange resin while stirring. At five minutes after each aliquot of resin was added, the solution pH was measured and a sample removed through a syringe filter. A total of 9 g of anion exchange resin was added. The final pH was 10.8. The resin was removed by filtration and the filtrate was concentrated to an oil by rotary evaporation at 60° C.; no solids formed. The starting material, final filtrate and all intermediate samples were assayed by HPLC and ion chromatography for chloride.
The diamond (solid line) is pH and square (dashed line) is S-[2-[(1-Iminoethyl)amino]ethyl]-2-methyl-L-cysteine (percent initial, by ion chromatography). […] The diamond (solid line) is pH and triangle (broken line) is chloride (by ion chromatography).
These curves are not true titration curves since samples were withdrawn during the progress of the reaction, and since true equilibrium was not attained before the increments of resin were added. Nevertheless, the graphs of FIG. 2 and FIG. 3 illustrate the expected trends. As resin is added to the S-[2-[(1-Iminoethyl)amino]ethyl]-2-methyl-L-cysteine solution the pH rises with change in slope around pH's of 2, 9 and 11. The pH's of slower rise are representative of the pK's of the carboxylic acid, amine and amidine functional groups, respectively. Above a pH of 10, the S-[2-[(1-Iminoethyl)amino]ethyl]-2-methyl-L-cysteine concentration in solution decreases. At this point, the S-[2-[(1-Iminoethyl)amino]ethyl]-2 methyl-L-cysteine is gaining a net negative charge and is binding to the resin. […] The final chloride content is approximately 0.04 mol equivalents.

Where [1] appears, read: pseudo-titration with anion exchange resin in water, not true titration curves.

SMILES strings stand for the structures.

On to `CC(=N)NCCSC[C@](C)(N)C(=O)O` [S-[2-[(1-Iminoethyl)amino]ethyl]-2-methyl-L-cysteine], for which, under setting [1], the “pH of slower rise representative of the pK of the amidine” value is given as around 11, the “pH of slower rise representative of the pK of the amine” value is around 9 and the “pH of slower rise representative of the pK of the carboxylic acid” value is around 2. Moreover, the “Degradation by HPLC assay of the titration samples” value (samples up to final pH 10.8) is “no degradation”.
